Measured values taken from patent publication US11603359B2, “Benzothiadiazepine compounds and their use as bile acid modulators” (Albireo AB, priority 2019, dated 2023).

Assays:
human IBAT = biological target: T1, human IBAT (Homo sapiens, UniProt Q12908); assay: IBAT (h/m) assay, human IBAT-overexpressing cells, 3H-taurocholic acid uptake; type: cell-based; details: 0.25 μM 3H-taurocholic acid + 5 μM cold taurocholic acid, 20 minutes, read-out: hIBAT IC50
T1 construct: expressed in transfected cells; Puromycin-selected IBAT-overexpressing cells
T1 sequence (Q12908 1-348): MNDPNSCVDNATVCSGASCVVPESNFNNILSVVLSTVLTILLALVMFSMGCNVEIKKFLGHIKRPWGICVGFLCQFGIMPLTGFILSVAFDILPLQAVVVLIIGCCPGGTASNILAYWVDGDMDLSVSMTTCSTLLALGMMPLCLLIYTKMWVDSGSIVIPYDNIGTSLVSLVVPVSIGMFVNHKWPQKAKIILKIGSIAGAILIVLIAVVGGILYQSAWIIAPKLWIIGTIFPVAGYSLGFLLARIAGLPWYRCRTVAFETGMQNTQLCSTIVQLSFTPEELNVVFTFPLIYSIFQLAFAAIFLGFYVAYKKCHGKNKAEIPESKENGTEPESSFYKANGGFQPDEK
Description: 10,000 cells (Human or Mouse IBAT-overexpressing cells) were seeded in 96-wells plate (Corning CLS3809) in 200 μL MEM-alpha medium (Gibco 12571-063) supplemented with 10% FBS (Gibco 10438026) containing Puromycin (Gibco A1113803) (10 μg/mL) and incubated at 37° C. in 5% CO2 for 48 hours. After incubation, media was decanted from the wells and cells were washed two times with 300 μL of basal MEM-alpha medium (FBS-free). After decanting basal MEM-alpha medium each time, plates were tapped against paper towel to ensure maximum removal of residual media. Test inhibitor dilutions (highest test concentration being 10 μM, 3-fold serial dilution, 10 points) prepared in DMSO (Sigma D2650) were added in incubation mix (maintaining 0.2% final DMSO concentration) containing 0.25 μM 3H-taurocholic acid (ARC ART-1368) and 5 μM of cold taurocholic acid (Sigma T4009). 50 μL of incubation mix containing test inhibitors was then added to the wells (in duplicate) and the plates were incubated for 20 minutes in a CO2 incubator at 37° C. After incubation, the reaction was stopped by keeping the plates on ice water mix for 2-3 minutes and then the incubation mix was aspirated completely from the wells. The wells were washed two times with 250 μL of chilled unlabelled 1 mM taurocholic acid dissolved in HEPES (Gibco 15630080)-buffered (10 mM) HBSS (Gibco 14175079) (pH 7.4). The plates were tapped against a paper towel after every wash to ensure maximum removal of blocking buffer.
100 μL of MicroScint-20 (PerkinElmer 6013621) was added to the wells and kept overnight at room temperature before reading the plates in TopCount NXT™ Microplate Scintillation and Luminescence Counter from PerkinElmer under 3H Test protocol (set at 120 seconds reading time per well).
All test compounds were provided in powder form at room temperature. 10 mM DMSO stocks of the test compounds were prepared, aliquoted and stored at −20° C. From the 10 mM DMSO stock of the compounds, a 3-fold serial dilution in DMSO was prepared to get a total of 10 dilutions of the test compounds. 0.5 μL of this dilution in DMSO was added to 250 μL of FBS-free basal media containing 3H-taurocholic acid and cold taurocholic acid to prepare the incubation mixture.

[1] = Bioavailability studies in mice; type: in vivo, mice (C57BL/6 or CD1); details: male, mouse, plasma, 1 mg/kg intravenous vs 10 mg/kg oral
Description: (§1) Male mice (C57BL/6 or CD1) or Wistar rats of 8-9 weeks old were used. For each test compound, two groups of 3 animals each were used. One group was administered a single intravenous dose of 1 mg/kg (vehicle 100% DMSO) through the tail vein and the other group was administered a single oral dose of 10 mg/kg through gavage needle. The group that was administered an oral dose was fasted overnight. Blood samples were collected after 0.083, 0.25, 0.5, 1, 2, 4, 6, 8 and 24 hours following intravenous administration, and after 0.25, 0.5, 1, 2, 4, 6, 8 and 24 hours following oral administration. Blood samples were taken from saphenous vein. 0.2% EDTA was used as the anticoagulant. The samples were analyzed by a discovery grade bioanalytical method developed for the estimation of test compound in plasma, using an LC-MS/MS system.

[2] = Bioavailability studies in rats; type: in vivo; details: male, Wistar, plasma, rat, 1 mg/kg intravenous vs 10 mg/kg oral
Description: as §1

Structure (SMILES) | IC50 (human IBAT) [nM] | also measured
CCCCC1(CCCC)CN(c2ccccc2)c2cc(SC)c(OCC(O)C(=O)O)cc2S(=O)(=O)N1 (racemic) [Example 5, 3-((3,3-dibutyl-7-(methylthio)-1,1-dioxido-5-phenyl-2,3,4,5-tetrahydro-1,2,5-benzothiadiazepin-8-yl)oxy)-2-hydroxypropanoic acid] | 5 | 
CCCCC1(CC)CN(c2ccccc2)c2cc(SC)c(OCCC(=O)O)cc2S(=O)(=O)N1 (single isomer, unassigned) [Example 4, 3-((3-butyl-3-ethyl-7-(methylthio)-1,1-dioxido-5-phenyl-2,3,4,5-tetrahydro-1,2,5-benzothiadiazepin-8-yl)oxy)propanoic acid] | 2 | bioavailability ([1]; CD1 mice): 45%; bioavailability [2]: 90%
CCCCC1(CCCC)CN(c2ccccc2)c2cc(SC)c(OCC(O)C(=O)O)cc2S(=O)(=O)N1 (single isomer, unassigned) [Example 7, 3-((3,3-dibutyl-7-(methylthio)-1,1-dioxido-5-phenyl-2,3,4,5-tetrahydro-1,2,5-benzothiadiazepin-8-yl)oxy)-2-hydroxypropanoic acid] | 2 | 
CCCCC1(CCCC)CN(c2ccccc2)c2cc(SC)c(OCCC(=O)O)cc2S(=O)(=O)N1 [Example 1, 3-((3,3-Dibutyl-7-(methylthio)-1,1-dioxido-5-phenyl-2,3,4,5-tetrahydro-1,2,5-benzothiadiazepin-8-yl)oxy)propanoic acid] | 7 | bioavailability ([1]; C57BL/6 mice): 34%; bioavailability ([1]; CD1 mice): 59%; bioavailability ([2]; Na^+ salt): 98%
CCCCC1(CCCC)CN(c2ccccc2)c2cc(SC)c(OC(C)CC(=O)O)cc2S(=O)(=O)N1 (centres unmarked) [Example 8, 3-((3,3-Dibutyl-7-(methylthio)-1,1-dioxido-5-phenyl-2,3,4,5-tetrahydro-1,2,5-benzothiadiazepin-8-yl)oxy)butanoic acid] | 12 | 

Second part, led by results:

IC50 (human IBAT) [nM] | Structure (SMILES) | also measured
3 | CCCCC1(CC)CN(c2ccccc2)c2cc(N(C)C)c(OCCC(=O)O)cc2S(=O)(=O)N1 (racemic) [Example 11, 3-((3-Butyl-7-(dimethylamino)-3-ethyl-1,1-dioxido-5-phenyl-2,3,4,5-tetrahydro-1,2,5-benzothiadiazepin-8-yl)oxy)propanoic acid] | 
3 | CCCCC1(CC)CN(c2ccccc2)c2cc(N(C)C)c(OCCC(=O)O)cc2S(=O)(=O)N1 (single isomer, unassigned) [Example 12, 3-((3-butyl-7-(dimethylamino)-3-ethyl-1,1-dioxido-5-phenyl-2,3,4,5-tetrahydro-1,2,5-benzothiadiazepin-8-yl)oxy)propanoic acid] | 
21 | CCCCC1(CCCC)CN(c2ccccc2)c2cc(Cl)c(OCCC(=O)O)cc2S(=O)(=O)N1 [Example 9, 3-((3,3-dibutyl-7-chloro-1,1-dioxido-5-phenyl-2,3,4,5-tetrahydro-1,2,5-benzothiadiazepin-8-yl)oxy)propanoic acid] | 
2 | CCCCC1(CCCC)CN(c2ccc(O)cc2)c2cc(SC)c(OCCC(=O)O)cc2S(=O)(=O)N1 [Example 10, 3-((3,3-dibutyl-5-(4-hydroxyphenyl)-7-(methylthio)-1,1-dioxido-2,3,4,5-tetrahydro-1,2,5-benzothiadiazepin-8-yl)oxy)propanoic acid] | 
